Patent US4517007A, “Phosphoroamide urease inhibitors and urease inhibited urea based fertilizer compositions” (Allied Corporation, priority 1983, dated 1985)

system: urease; experiment: Urease Inhibition Efficacy Test in soil (urea remaining after incubation); format: biochemical; settings: 800 micrograms test compound and 42.8 mg urea on 20 g air-dry Cazenovia silt loam, pH 7.0; incubated at 25° C. for three days; run in triplicate
Experimental: Efficacy tests were conducted to evaluate the efficacy of representative compounds as urease inhibitors. The inhibition tests were run in a New York soil (Cazenovia silt loam, pH 7.0). Evaluations (run in triplicate) consisted of applying 800 micrograms of the test compound in 5 mL of water and 42.8 mg of urea in 1 mL of water to 20 g of air-dry soil in a glass bottle. The bottle was capped with perforated aluminum foil and incubated at 25° C. for three days prior to extraction with 100 mL of a 2M KCl solution containing 0.5 mg of phenylmercuric acetate. The extracts were then analyzed for remaining urea using an autoanalyzer. Percent inhibition was calculated as [formula] where A is urea recovered from an unincubated sample (urea added to soil and immediately extracted); B is urea recovered from an inhibited sample; and C is urea recovered from the control (uninhibited sample).

Compared with `NP(N)(=O)Oc1ccc2c(c1)OP(N)(=O)O2` (stereo not drawn) [Experiment 3], `NP(N)(=O)Oc1cccc2c1OP(N)(=O)O2` (stereo not drawn) [Experiment 2] is lower in “% Inhibition 40 micrograms per gram Cazenovia soil” value: 21% for the first, 5% for the second.

For `NP1(=O)Oc2ccccc2O1` [Experiment 1], the “% Inhibition 40 micrograms per gram Cazenovia soil” value was 54%.
